# Test results from ChEMBL document CHEMBL6182856, “Novel one-/two-photon excited carbazole/quinolinium photosensitizers manifest nanomolar and hypoxia-resistant tumor photodynamic therapy by accelerating apoptosis, ferroptosis, and autophagy” (Eur J Med Chem, 2025).
# Activity calls are given as the source filed them. The calls are words filed in the database; no cut-off is given here.
# Key:
# A549 [1] = assay: Induction of mitochondrial damage in human A549 cells assessed as increase in ratio of green to red fluorescence intensity measured upon light irradiation by JC-1 staining based fluorescence analysis relative to control; format: functional
# [2] = Selectivity index, ratio of IC50 for cytotoxicity against human HFL1 cells measured under normoxia conditions to IC50 for cytotoxicity against human A549 cells measured under normoxia conditions; format: toxicity, cell-based; settings: HFL1 cells versus A549 cells, read-out: Ratio IC50
# [3] = Phototherapeutic index, ratio of IC50 for cytotoxicity against human A549 cells measured under hypoxia conditions to IC50 for phototoxicity against human A549 cells measured under hypoxia conditions and after two-photon excitation upon irradiation with light at 808 nm, 200 mW/cm2 for 10 mins; format: functional
# A549 [4] = assay: Induction of apoptosis in human A549 cells assessed as necrotic cells measured under dark conditions by AnnexinV-FITC/PI staining based flow cytometric analysis (reference value: 0.031%); format: functional
# A549 [5] = assay: Induction of ferroptosis in human A549 cells assessed as increase in lipid peroxidation by measuring decrease in GPX4 protein expression measured upon irradiation by western blot analysis relative to control; format: functional
# [6] = Toxicity against mouse xenografted with human A549 cells assessed as changes in biochemical indicators administered intratumorally followed by exposure to light on day 0 and 7 and measured on day 15; settings: in vivo, other, 360 h, route it(Intratumoral), time 15 day
# A549 [7] = assay: In vivo photodynamic therapy based antitumor activity against human A549 cells xenografted in mouse assessed as tumor growth inhibition administered intratumorally followed by exposure to light on day 0 and 7 and measured on day 15; format: functional; settings: route it(Intratumoral); time 15 day
# [8] = Toxicity against mouse xenografted with human A549 cells assessed as changes in hematological indicators administered intratumorally on day 0 and 7 and measured on day 15; settings: in vivo, other, 360 h, route it(Intratumoral), time 15 day
# [9] = Phototoxicity against human A549 cells assessed as inhibition of cell growth incubated for 24 hrs measured under normoxia conditions and after two-photon excitation upon irradiation with light at 808 nm, 200 mW/cm2 for 10 mins by MTT assay; format: functional, cell-based; settings: A549, light or radiation study
# [10] = Toxicity against mouse xenografted with human A549 cells assessed as changes in hematological indicators administered intratumorally followed by exposure to light on day 0 and 7 and measured on day 15; settings: in vivo, other, 360 h, route it(Intratumoral), time 15 day
# [11] = Photosensitizing ability of the compound in methanol assessed as singlet oxygen production by measuring quantum yield measured upon irradiation by DPBF based assay; format: functional
# A549 [12] = assay: Induction of apoptosis in human A549 cells measured upon light irradiation by AnnexinV-FITC/PI staining based flow cytometric analysis relative to RuB; format: functional
# A549 [13] = assay: Induction of apoptosis in human A549 cells assessed as viable cells measured under dark conditions by AnnexinV-FITC/PI staining based flow cytometric analysis (reference value: 99.7%); format: functional
# A549 [14] = assay: Cytotoxicity against human A549 cells assessed as inhibition of cell growth incubated for 24 hrs measured under hypoxia conditions by MTT assay; format: functional, cell-based; settings: A549, 24 h
# [15] = Phototherapeutic index, ratio of IC50 for cytotoxicity against human A549 cells measured under normoxia conditions to IC50 for phototoxicity against human A549 cells measured under normoxia conditions and after two-photon excitation upon irradiation with light at 808 nm, 200 mW/cm2 for 10 mins; format: functional
# [16] = Photosensitizing ability of the compound assessed as superoxide radical production measured upon irradiation by DHE probe based assay; format: functional
# A549 [17] = assay: Induction of apoptosis in human A549 cells assessed as early apoptotic cells measured upon light irradiation by AnnexinV-FITC/PI staining based flow cytometric analysis (reference value: 0.39%); format: functional
# [18] = Toxicity against mouse xenografted with human A549 cells assessed as changes in biochemical indicators administered intratumorally on day 0 and 7 and measured on day 15; settings: in vivo, other, 360 h, route it(Intratumoral), time 15 day
# A549 [19] = assay: Induction of mitochondrial damage in human A549 cells assessed as decrease in red fluorescence intensity measured upon light irradiation by JC-1 staining based fluorescence analysis; format: functional, cell-based
# [20] = Photosensitizing ability of the compound assessed as hydroxyl radical production measured upon irradiation by HPF probe based assay; format: functional
# A549 [21] = assay: Induction of mitochondrial damage in human A549 cells assessed as increase in green fluorescence intensity measured upon light irradiation by JC-1 staining based fluorescence analysis; format: functional, cell-based
# [22] = Phototherapeutic index, ratio of IC50 for cytotoxicity against human A549 cells measured under hypoxia conditions to IC50 for phototoxicity against human A549 cells measured under hypoxia conditions and after one-photon excitation upon irradiation with light at 520 nm, 200 mW/cm2 for 10 mins; format: functional
# [23] = Phototoxicity against human HT-29 cells assessed as inhibition of cell growth incubated for 24 hrs measured under normoxia conditions and after one-photon excitation upon irradiation with light at 520 nm, 200 mW/cm2 for 10 mins by MTT assay; format: functional, cell-based; settings: HT-29, light or radiation study
# [24] = Drug uptake in human A549 cells assessed as localization in mitochondria by measuring appearance of yellow fluorescence by Hoechst33342/MitoTracker dye based confocal laser scanning microscopic analysis; format: ADME
# [25] = Photosensitizing ability of the compound assessed as hydroxyl radical production upon irradiation by HPF probe based assay relative to KAKQ; format: functional
# [26] = Photosensitizing ability of the compound assessed as superoxide radical production upon irradiation by DHE probe based assay relative to KAKQ; format: functional
# [27] = Photosensitizing ability of the compound assessed as hydroxyl radical production upon irradiation by HPF probe based assay relative to RuB; format: functional
# [28] = Photosensitizing ability of the compound assessed as singlet oxygen production measured upon irradiation by electron spin resonance analysis; format: functional
# [29] = Toxicity against mouse xenografted with human A549 cells assessed as changes in body weight administered intratumorally on day 0 and 7 and measured for 15 days; settings: in vivo, other, 360 h, route it(Intratumoral), time 15 day
# [30] = Phototoxicity against mouse 4T1 cells assessed as inhibition of cell growth incubated for 24 hrs measured under normoxia conditions and after one-photon excitation upon irradiation with light at 520 nm, 200 mW/cm2 for 10 mins by MTT assay; format: functional, cell-based; settings: 4T1, light or radiation study
# [31] = Phototherapeutic index, ratio of IC50 for cytotoxicity against human HT-29 cells measured under normoxia conditions to IC50 for phototoxicity against human HT-29 cells measured under normoxia conditions and after one-photon excitation upon irradiation with light at 520 nm, 200 mW/cm2 for 10 mins; format: functional
# A549 [32] = assay: Induction of apoptosis in human A549 cells assessed as late apoptotic cells measured upon light irradiation by AnnexinV-FITC/PI staining based flow cytometric analysis (reference value: 0.15%); format: functional
# A549 [33] = assay: Photosensitizing ability of the compound in human A549 cells assessed as increase in intracellular superoxide generation by measuring increase in fluorescence intensity measured upon light irradiation under hypoxia conditions by DHE probe based fluorescence analysis; format: functional, cell-based
# A549 [34] = assay: Induction of ferroptosis in human A549 cells assessed as increase in lipid peroxidation by measuring reduction in red fluorescence of the reduced state measured upon irradiation by BODIPY 581/591C11 probe based confocal imaging analysis; format: functional, cell-based
# [35] = Photosensitizing ability of the compound assessed as hydroxyl radical production upon irradiation by HPF probe based assay relative to KNKQ; format: functional
# [36] = Drug uptake in human A549 cells assessed as localization in lysosomes by measuring appearance of yellow fluorescence by Hoechst33342/LysoTracker dye based confocal laser scanning microscopic analysis; format: ADME, cell-based
structure (smiles),measurement,setting,value
CCn1c2ccc(/C=C/c3cc[n+](C)c4ccccc34)cc2c2cc(N(c3ccccc3)c3ccccc3)ccc21.[I-],fold change (FC),A549 [1],~100
same,selectivity ratio,[2],6
same,Ratio IC50,[3],10
same,Activity,A549 [4],0.85%
same,fold change (FC),A549 [5],3.3
same,Activity,[6],Non-toxic
same,TGI,A549 [7],90.7%
same,Activity,[8],Non-toxic
same,IC50,[9],130 nM
same,Activity,[10],Non-toxic
same,Activity,[11],0.38
same,fold change (FC),A549 [12],14
same,Activity,A549 [13],50.4%
same,IC50,A549 [14],1970 nM
same,Ratio IC50,[15],11
same,Activity,[16],Active
same,Activity,A549 [17],2.36%
same,Activity,[18],Non-toxic
same,Activity,A549 [19],Active
same,Activity,[20],Active
same,Activity,A549 [21],Active
same,Ratio IC50,[22],46
same,IC50,[23],29 nM
same,Drug uptake,[24],Active
same,fold change (FC),[25],3
same,fold change (FC),[26],8
same,fold change (FC),[27],3
same,Activity,[28],Active
same,Activity,[29],Non-toxic
same,IC50,[30],51 nM
same,Ratio IC50,[31],51
same,Activity,A549 [32],87.8%
same,Activity,A549 [33],Active
same,Activity,A549 [34],Active
same,fold change (FC),[35],3
same,Drug uptake,[36],Active
